Assay results reported in patent publication US20160075753A1, “MODULATION OF REGULATORY T CELL FUNCTION VIA PROTEIN KINASE C-eta” (LA JOLLA INSTITUTE FOR ALLERGY AND IMMUNOLOGY, priority 2013, published 2016).

Tested on: interaction between CTLA-4 and PKCη
Assay: CTLA-4 immunoprecipitation and immunoblotting for PKCη in cotransfected JTAg cells
Assay type: cell-based, human
Settings: JTAg cells cotransfected with WT Ctla4 and Xpress-tagged WT PKCη; PP2 10 μM for 30 min before anti-CD3 mAbs + B7-Fc stimulation for 5 min; FIG. 12
Description: WT Ctla4 were cotransfected with Xpress-tagged WT PKCη into JTAg cells. Cells were treated with vehicle (DMSO), PP2 (10 μM) or PP3 (10 μM) for 30 min prior to stimulation with anti-CD3 mAbs+B7-Fc recombinant protein for 5 min Cell lysates were immunoprecipitated with CTLA-4 mAb and then immunoblotted with the indicated Abs.
Simian virus 40 large T antigen-transfected human leukemic Jurkat T cells (JTAg) and MCC-specific hybridoma T cells were described previously. JTAg cells in logarithmic growth phase were transfected with plasmid DNAs by electroporation and incubated for 48 hours. Transfected cells were stimulated with OKT3 mAb and recombinant B7-Fc in the presence of cross-linking Ab for 5 min. Cell lysis in 1% digitonin lysis buffer (50 mM Tris-HCl, 50 mM NaCl, 5 mM EDTA), immunoprecipitation and Western blotting were carried out as previously described.
To map the important motif within the cytoplasmic tail of CTLA-4 that is used in the interaction with PKCη, the membrane proximal positively charged motif (K188, 191KKR193), the proline-rich motif (P205, 206, 209), and tyrosine residues (Y201 or Y218) were mutated, and the corresponding mutants examined for their ability to associate with PKCη. […] This positively charged motif is highly conserved throughout evolution from fish to primates (FIG. 10).

**Q.** How did the “interaction between CTLA-4 and PKCη (co-immunoprecipitation)” value turn out when `CC(C)(C)n1nc(-c2ccc(Cl)cc2)c2c(N)ncnc21` [PP2] was run?
**A.** not affected
